The subject of data set [1] is A549 (Human non-small cell lung adenocarcinoma). In words: SRB/MTT anti-proliferative assay, A549. The note with it: 48 hours treatment, read-out: GI50 (Concentration of drug causing 50% inhibition of cell growth). The format is cell-based. On the procedure: (§1) The anticancer effect of DSePA was evaluated using a panel of twenty-five human cancer cell lines of different tissue origins. Cells were treated with the increasing concentrations (0.1-100 μM) of DSePA for 48 h and viability was monitored by (Sulforhodamine B) SRB assay or MTT assay.
(§2) Cell culture and DSePA synthesis—DSePA was synthesized and characterized as described in our previous reports. Cell lines were cultured in growth medium (DMEM/RPMI) supplemented with 10% FBS, 100 U/ml penicillin and 100 μg/ml streptomycin at 37° C. in a humidified 5% CO2 environment. The stock solution of DSePA was prepared fresh in cell culture medium and diluted with the same to achieve the desired concentrations.
(§3) SRB/MTT Assay—To evaluate the anti-proliferative effect of DSePA, Cells (˜5×10^3) suspended in 100 μl of complete culture medium were seeded in each well of 96 well plates. The cells were allowed to attach and grow for 24 h, treated with desired concentrations of DSePA dissolved in culture medium for 48 h and then processed for SRB/MTT assay as described in literature. The percentage (%) cytotoxicity was calculated from the decrease in absorbance as compared to that of control group.
(Tetrazolium assays rely on reduction of a dye to a coloured formazan, in cell work by metabolically active cells.)

The subject of data set [2] is WI-38 (Human normal lung fibroblast). In words: SRB/MTT assay, normal WI-38 cells. The format is cell-based. On the procedure: as §1, §2, §3

The structures appear in SMILES notation. Where two headings read alike, the source gives them in different places.

In the case of `O=C(O)CC[Se][Se]CCC(=O)O` [DSePA, 3,3′-diselenodipropionic acid], the GI50 in data set [1] is 10 µM; in data set [1] (Homo sapiens, A549, 48 h), at most 10 µM; in data set [2] (Homo sapiens, WI-38 normal cells, 48 hours treatment, SRB/MTT assay, read-out: GI50 (Concentration of drug causing 50% inhibition of cell growth)) it was over 100 µM. Also, the “toxicity in normal cell types” value in data set [2] (WI-38, 0.1-100 μM, 48 h) is listed as “did not show toxicity”.
